Where a name gives a salt, the structure may show the parent alone. Read-outs that look alike come from different tables or passages of the source.

One test has as its target T1, ETA (Oryctolagus cuniculus, UniProt A5A8K3).
T1 sequence (A5A8K3 21-427): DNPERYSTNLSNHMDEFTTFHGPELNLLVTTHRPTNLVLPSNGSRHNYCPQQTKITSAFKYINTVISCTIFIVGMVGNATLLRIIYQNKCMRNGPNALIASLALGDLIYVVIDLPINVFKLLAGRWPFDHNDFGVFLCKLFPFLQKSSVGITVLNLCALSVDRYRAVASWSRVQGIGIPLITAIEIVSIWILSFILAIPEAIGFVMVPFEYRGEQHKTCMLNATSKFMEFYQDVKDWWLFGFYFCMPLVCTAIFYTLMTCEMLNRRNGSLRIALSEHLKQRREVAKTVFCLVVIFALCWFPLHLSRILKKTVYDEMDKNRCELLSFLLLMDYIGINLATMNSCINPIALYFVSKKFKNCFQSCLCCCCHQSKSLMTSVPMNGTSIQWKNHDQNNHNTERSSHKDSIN

The next test deals with T2, human ETB receptor (Homo sapiens, UniProt P24530).
T2 construct: expressed in transfected cells; host or cells: CHO-K1 cells, pRc-CMW (so in the source) expression vector, electroporation; membranes used
T2 sequence (P24530 27-442): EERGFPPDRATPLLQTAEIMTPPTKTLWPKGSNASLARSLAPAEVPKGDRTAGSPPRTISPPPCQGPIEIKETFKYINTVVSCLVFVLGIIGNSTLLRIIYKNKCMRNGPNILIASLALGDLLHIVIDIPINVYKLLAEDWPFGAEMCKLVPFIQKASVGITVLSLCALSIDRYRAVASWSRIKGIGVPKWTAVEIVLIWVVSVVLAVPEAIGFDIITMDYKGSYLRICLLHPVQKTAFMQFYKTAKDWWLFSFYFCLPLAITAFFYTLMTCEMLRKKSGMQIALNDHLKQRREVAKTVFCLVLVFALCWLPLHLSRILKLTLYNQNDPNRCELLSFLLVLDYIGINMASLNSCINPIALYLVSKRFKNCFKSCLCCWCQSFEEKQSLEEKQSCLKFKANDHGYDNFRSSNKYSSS
Description: ERBA-B: [125I]-ET-1 binding, recombinant human ETB receptor expressed in CHO-K1 cells. Particulars: human cloned ETB receptor, read-out: ERBA-B IC50, human cloned receptor data. How it is done: Count filters for radioactivity in gamma counter.
The above process has also been modified by using human recombinant CHO-K1 cells.
The tissue used for human ETB was recombinant human ETB receptor expressed in CHO-K1 cells (chinese hamster ovary cells). The gene for human ETB receptor was cloned and inserted into the pRc-CMW expression vector, then transfected into CHO-K1 cells by electroporation. For binding assays, membranes (0.7 mg protein) of CHO-K1 cells expressing recombinant human ETB receptor were used.
^d Human cloned receptor data

[1] abbreviates: ERBA-A IC50, [125I]-ET-1, rabbit renal artery vascular smooth muscle cells.

By IC50 is commonly meant the midpoint of a concentration-inhibition curve. Take `COc1ccc(C(=O)/C(Cc2cc(OC)c(OC)c(OC)c2)=C(\C(=O)O)c2cc(OC)c3c(c2)OCO3)cc1` [Example 371]: the values for the IC50 against ETA (setting [1]) and on human ETB receptor were 0.39 nM and 328 nM, respectively.
For `COc1cc(OC)cc(C2=C(Cc3ccc(OC(C)C)c(C)c3)C(O)(c3ccc(OC)c(C)c3)OC2=O)c1` (stereo not drawn) [Example 396, 3-(3,5-Dimethoxy-phenyl)-5-hydroxy-4-(4-isopropoxy-3-methyl-benzyl)-5-(4-methoxy-3-methyl-phenyl)-5H-furan-2-one] the same measures were 47 nM and 1200 nM.
As to `O=C1OC(O)(c2ccc(OCc3ccccc3)cc2)C(Cc2ccccc2)=C1c1ccc2c(c1)OCO2` (stereo not drawn) [Example 208, 3-Benzo[1,3]dioxol-5-yl-4-benzyl-5-(4-benzyloxyphenyl)-5-hydroxy-5H-furan-2-one], the concentration for half-maximal inhibition (IC50) came to 1200 nM against ETA (setting [1]) and 5400 nM at human ETB receptor.
For `COc1cc(OC)cc(C2=C(Cc3ccc(OC(C)C)c(OC)c3)C(O)(c3ccc(OC)c(C)c3)OC2=O)c1` (stereo not drawn) [Example 390, 3-(3,5-Dimethoxy-phenyl)-5-hydroxy-4-(4-isopropoxy-3-methoxy-benzyl)-5-(4-methoxy-3-methyl-phenyl)-5H-furan-2-one] the same measures were 7 nM and 820 nM.
The like results for `CCOC(=O)COc1c(OC)cc(CC2=C(c3ccc4c(c3)OCO4)C(=O)OC2(O)c2ccc(OC)cc2)cc1OC` (stereo not drawn) [Example 362, {4-[4-Benzo[1,3]dioxol-5-yl-2-hydroxy-2-(4-methoxyphenyl)-5-oxo-2,5-dihydro-furan-3-ylmethyl]-2,6-dimethoxy-phenoxy}-acetic acid ethyl ester] were, in that order, 26 nM and 1200 nM.
For `O=C(O)/C(=C(/Cc1ccccc1)C(=O)c1ccc(-n2ccnc2)cc1)c1ccc2c(c1)OCO2` [Example 348, 2-Butenoic acid, 2-(1,3-benzodioxol-5-yl)-4-[4-(1H-imidazol-1-yl)phenyl]4-oxo-3-(phenylmethyl)-] the same measures were 7100 nM and over 25000 nM.
Take `COc1ccc(C2(O)OC(=O)C(c3ccc4c(c3)OCO4)=C2Cc2ccccc2)c(OCC(=O)O)c1` (stereo not drawn) [Example 341, [2(4-Benzo[1,3]dioxol-5-yl-3-benzyl-2-hydroxy-5-oxo-2,5-dihydro-furan-2-yl) -5-methoxy-phenoxy]-acetic acid]: the IC50 on ETA (setting [1]) was 80 nM; at human ETB receptor, over 2500 nM.
The like results for `CCCCCCCCOc1c(C)cc(CC2=C(c3ccc4c(c3)OCO4)C(=O)OC2(O)c2ccc(OC)cc2)cc1C` (stereo not drawn) [Example 302, 3-Benzo[1,3]dioxol-5-yl-4-(3,5-dimethyl-4-octyloxybenzyl)-5-hydroxy-5-(4-methoxy-phenyl)-5H-furan-2-one] were, in that order, 2300 nM and 2000 nM.
Turning to `COc1ccc(C2(O)OC(=O)C(c3ccc4c(c3)OCO4)=C2Cc2ccc(C(=O)NCCN3CCOCC3)cc2)cc1` (racemic) [Example 350, Benzamide, 4-[4-(1,3-benzodioxol-5-yl)-2,5-dihydro-2-hydroxy-2-(4-methoxyphenyl)-5-oxo-3-furanyl]methyl]-N-[2-(4-morpholinyl)ethyl]-, monohydrochloride, (±)-], the IC50 at ETA (read-out: ERBA-A IC50, [125I]-ET-1, rabbit renal artery vascular smooth muscle cells) is 290 nM; at human ETB receptor, over 2500 nM.
With `COc1ccc(C(=O)/C(Cc2ccc(OC(C)C)cc2)=C(\C(=O)O)c2ccc3c(c2)OCO3)cc1` [Example 353, Sodium 2-Benzo[1,3]dioxol-5-yl-3-(4-isopropoxy-benzyl)-4-(4-methoxy-phenyl)-4-oxo-but-2-enoate], the IC50 against ETA (setting [1]) is 4.4 nM; at human ETB receptor, over 250 nM.
For `COc1ccc(C(=O)/C(Cc2ccc(C(=O)NCCN3CCOCC3)cc2)=C(\C(=O)O)c2ccc3c(c2)OCO3)cc1` [Example 349, 2-benzo[1,3]dioxol-5-yl-4-(4-methoxy-phenyl)-3-[4-(2-morpholin-4-yl-ethylcarbamoyl)-benzyl]-4-oxo-but-2-enoic acid] the same measures were 510 nM and 25000 nM.
For `COc1ccc(C2(O)OC(=O)C(c3ccc4c(c3)OCO4)=C2CC2CC2)cc1` (stereo not drawn) [Example 400, 3-Benzo[1,3]dioxol-5-yl-4-cyclopropylmethyl-5-hydroxy-5-(4-methoxy-phenyl)-5H-furan-2-one] the same measures were 39 nM and over 2500 nM.
The like results for `CCCCCCCCOc1ccc(CC2=C(c3cc(OC)cc(OC)c3)C(=O)OC2(O)c2ccc(OC)c(C)c2)cc1OC` (stereo not drawn) [Example 393, 3-(3,5-Dimethoxy-phenyl)-5-hydroxy-5-(4-methoxy-3-methyl-phenyl)-4-(3-methoxy-4-octyloxy-benzyl)-5H-furan-2-one] were, in that order, 240 nM and 830 nM.
On to `COc1ccc(C2(O)OC(=O)C(c3ccc4c(c3)OCO4)=C2CC2CC=CCC2)cc1` (stereo not drawn) [Example 316, 3-Benzo[1,3]dioxol-5-yl-4-cyclohex-3-enylmethyl-5-hydroxy-5-(4-methoxy-phenyl)-5H-furan-2-one], for which the IC50 amounted to 8.1 nM against ETA (setting [1]) and 690 nM on human ETB receptor.
The like results for `COc1ccc(C2(O)OC(=O)C(c3ccc4c(c3)OCO4)=C2Cc2ccc3c(c2)OCO3)cc1` (stereo not drawn) [Example 87, 3-Benzo[1,3]dioxol-5-yl-4-benzo[1,3]dioxol-5-ylmethyl-5-hydroxy-5-(4-methoxyphenyl)-5H-furan-2-one] were, in that order, 63 nM and 1500 nM.
Take `COC(=O)C1CCCC(CC2=C(c3ccc4c(c3)OCO4)C(=O)OC2(O)c2ccc(OC)cc2)C1` (stereo not drawn) [Example 399, 3-[4-Benzo[1,3]dioxol-5-yl-2-hydroxy-2-(4-methoxyphenyl)-5-oxo-2,5-dihydro-furan-3-ylmethyl]-cyclohexanecarboxylic acid methyl ester]: the IC50 is 20 nM against ETA (setting [1]) and 1100 nM at human ETB receptor.
In the case of `COc1ccc(C(=O)/C(Cc2ccccc2)=C(\C(=O)O)c2ccc3c(c2)OCO3)cc1C` [Example 355, Sodium 2-Benzo[1,3]dioxol-5-yl-3-benzyl-4-(4-methoxy-3-methyl-phenyl)-4-oxo-but-2-enoate], the IC50 was found to be 42 nM against ETA (setting [1]) and 1600 nM at human ETB receptor.
As for `COc1ccc(C2(O)OC(=O)C(c3ccc(OC)c(OC)c3)=C2Cc2ccccc2)cc1` (stereo not drawn) [Example 261, 4-Benzyl-3-(3,4-dimethoxyphenyl)-5-hydroxy-5-(4-methoxyphenyl)-5H-furan-2-one], the results for the IC50 against ETA (setting [1]) and at human ETB receptor were 160 nM and 3900 nM, respectively.
For `COc1ccc(C2(O)OC(=O)C(c3ccc4c(c3)OCO4)=C2Cc2cc(C)c(OC)c(C)c2)cc1` (stereo not drawn) [Example 296, 3-Benzo[1,3]dioxol-5-yl-5-hydroxy-4-(4-methoxy-3,5-dimethyl-benzyl)-5-(4-methoxy-phenyl)-5-H-furan-2-one] the same measures were 6 nM and 580 nM.
The like results for `COc1ccc(C2(O)OC(=O)C(c3ccc4c(c3)OCO4)=C2Cc2cc(OC)cc(OC)c2)cc1` (stereo not drawn) [Example 303, 3-Benzo[1,3]dioxol-5-yl-4-(3,5-dimethoxy-benzyl)-5-hydroxy-5-(4-methoxy-phenyl)-5H-furan-2-one] were, in that order, 2.7 nM and 760 nM.
For `COc1ccc(C(=O)/C(Cc2ccccc2)=C(\C(=O)O)c2cc(OC)c3c(c2)OCO3)cc1` [Example 368, Sodium 3-Benzyl-2-(7-methoxy-benzo[1,3]dioxol-5-yl)-4-(4-methoxy-phenyl)-4-oxo-but-2-enoate] the same measures were under 25 nM and 960 nM.
Consider `COc1ccc(C2(O)OC(=O)C(c3ccc4c(c3)OCO4)=C2Cc2ccc(OC3CCCCC3)c(C)c2)cc1` (stereo not drawn) [Example 397, 3-Benzo[1,3]dioxol-5-yl-4-(4-cyclohexyloxy-3-methylbenzyl)-5-hydroxy-5-(4-methoxy-phenyl)-5H-furan-2-one], for which the IC50 on ETA (setting [1]) is 610 nM; at human ETB receptor, 2600 nM.
For `COc1ccc(C2(O)OC(=O)C(c3ccc4c(c3)OCO4)=C2CC2CCCc3ccccc32)cc1` (stereo not drawn) [Example 398, 3-Benzo[1,3]dioxol-5-yl-5-hydroxy-5-(4-methoxy-phenyl)-4-(1,2,3,4-tetrahydro-naphthalen-1-ylmethyl)-5H-furan-2-one] the same measures were 830 nM and over 2500 nM.
For `COc1ccc(C2(O)OC(=O)C(c3ccc4c(c3)OCO4)=C2CC(c2ccccc2)C2CCCC2)cc1` (stereo not drawn) [Example 319, 3-Benzo[1,3]dioxol-5-yl-4-(2-cyclopentyl-2-phenylethyl)-5-hydroxy-5-(4methoxy-phenyl)-5H-furan-2-one] the same measures were 5.6 nM and 180 nM.

For the origin of these results see patent US5691373A, “Nonpeptide endothelin antagonists I” (Warner-Lambert Company, priority 1995, dated 1997).
